The source of these data is PMC10648927, “Examining the activity of cefepime-taniborbactam against Burkholderia cepacia complex and Burkholderia gladioli isolated from cystic fibrosis patients in the United States” (Antimicrobial Agents and Chemotherapy, 2023).

≈ marks a conversion by molar mass, not a printed value. Bounds are passed on as bounds.

Common to all, as to parameters: agar dilution MIC, growth inhibition of clinical Burkholderia isolates
(In general: In agar dilution, organisms are placed on agar that contains the substance at set levels.)

One assay relates to T1, B. cenocepacia AU0583.
T1 construct: AU0583
Nature of the assay: microbe, parasite or virus in culture. The following applies: Burkholderia cenocepacia, AU0583. The text has this: (§1) We evaluated the activity of cefepime-taniborbactam against a panel of 140 Bcc clinical isolates (i.e., species ambifaria, arboris, cenocepacia, cepacia, contaminans, diffusa, dolosa, multivorans, pseudomultivorans, pyrrocinia, seminalis, stabilis, ubonensis, and vietnamiensis) and 10 B. gladioli from the Burkholderia cepacia Research Laboratory and Repository (University of Michigan) ([22], [25], [31]) (Supplementary Material, Tables S1 and S2). K. pneumoniae ATCC 700603 carrying bla SHV-18 and K. pneumoniae ATCC BAA-1705 harboring bla KPC strains were used as controls for β-lactam and β-lactamase inhibitor integrity; all controls tested within the anticipated quality control ranges (Table S3). Minimum inhibitory concentration (MIC) results were interpreted using Clinical Laboratory Standards Institute (CLSI) breakpoints, where available ([32]). […] An alternative cefepime-taniborbactam provisional susceptible breakpoint of ≤16 µg/mL is supported by in vivo efficacy data from neutropenic murine infection models (thigh, complicated urinary tract, and lung) ([15] [–] [17]) and data from safety and pharmacokinetics studies in human volunteers ([33], [34]). The cefepime-taniborbactam antimicrobial activity was compared to cefepime, meropenem, meropenem-vaborbactam, and levofloxacin, to data published for first-line agents (e.g., ceftazidime and trimethoprim-sulfamethoxazole) and to those recommended by the CLSI for clinical testing (e.g., minocycline) against the Bcc and B. gladioli panel ([22], [32]). Of note, the MICs of all these agents were determined by the agar dilution method, which alongside broth microdilution, are recommended by the CLSI to assess the antimicrobial susceptibility of Bcc isolates ([32]).

In the next assay the test system is T2, B. cenocepacia AU0756.
T2 construct: AU0756
Kind of assay: microbe, parasite or virus in culture. The following applies: Burkholderia cenocepacia, AU0756.
Excerpt: as §1

The subject of a further assay is T3, B. cenocepacia AU19684.
T3 construct: AU19684
Nature of the assay: microbe, parasite or virus in culture. The following applies: Burkholderia cenocepacia, AU19684.
Excerpt: as §1

A further assay deals with T4, B. cepacia AU0108.
T4 construct: AU0108
Nature of the assay: microbe, parasite or virus in culture. The settings on record: Burkholderia cepacia, AU0108.
Excerpt: as §1

The next assay concerns T5, B. cepacia AU22213.
T5 construct: AU22213
Nature of the assay: microbe, parasite or virus in culture. The settings on record: Burkholderia cepacia, AU22213.
Excerpt: as §1

A further assay deals with T6, B. contaminans AU17641.
T6 construct: AU17641
Nature of the assay: organism not typed.
Excerpt: as §1

In a further assay the test system is T7, B. contaminans AU22662.
T7 construct: AU22662
Kind of assay: organism not typed.
Excerpt: as §1

A further assay has as its system T8, B. gladioli AU0032.
T8 construct: AU0032
Kind of assay: organism not typed.
Excerpt: as §1

In another assay the test system is T9, B. multivorans AU10398.
T9 construct: AU10398
Nature of the assay: microbe, parasite or virus in culture. The settings on record: Burkholderia multivorans, AU10398.
Excerpt: as §1

A further assay has as its system T10, B. multivorans AU11772.
T10 construct: AU11772
Kind of assay: microbe, parasite or virus in culture. The settings on record: Burkholderia multivorans, AU11772.
Excerpt: as §1

A further assay concerns T11, B. multivorans AU14364.
T11 construct: AU14364
Nature of the assay: microbe, parasite or virus in culture. The following applies: Burkholderia multivorans, AU14364.
Excerpt: as §1

The test system of another assay is T12, B. multivorans AU18096.
T12 construct: AU18096
Nature of the assay: microbe, parasite or virus in culture. The following applies: Burkholderia multivorans, AU18096.
Excerpt: as §1

The next assay deals with T13, B. multivorans AU19518.
T13 construct: AU19518
Nature of the assay: microbe, parasite or virus in culture. The following applies: Burkholderia multivorans, AU19518.
Excerpt: as §1

The next assay has as its system T14, B. multivorans AU22436.
T14 construct: AU22436
Nature of the assay: microbe, parasite or virus in culture. The following applies: Burkholderia multivorans, AU22436.
Excerpt: as §1

A further assay deals with T15, B. multivorans AU23919.
T15 construct: AU23919
Kind of assay: microbe, parasite or virus in culture. The settings on record: Burkholderia multivorans, AU23919.
Excerpt: as §1

In another assay the test system is T16, B. multivorans AU29198.
T16 construct: AU29198
Kind of assay: microbe, parasite or virus in culture. The following applies: Burkholderia multivorans, AU29198.
Excerpt: as §1

A further assay deals with T17, B. multivorans AU30441.
T17 construct: AU30441
Nature of the assay: microbe, parasite or virus in culture. The settings on record: Burkholderia multivorans, AU30441.
Excerpt: as §1

A further assay has as its system T18, B. pyrrocinia AU4348.
T18 construct: AU4348
Nature of the assay: microbe, parasite or virus in culture. The settings on record: Burkholderia pyrrocinia, AU4348.
Excerpt: as §1

In another assay the test system is T19, B. vietnamiensis AU30387.
T19 construct: AU30387
Nature of the assay: microbe, parasite or virus in culture. The following applies: Burkholderia vietnamiensis, AU30387.
Excerpt: as §1

The test system of assay [1] is T20, Burkholderia cepacia complex Bcc Indeterminate AU12560.
T20 construct: AU12560
Kind of assay: microbe, parasite or virus in culture. The settings on record: Burkholderia cepacia.
Excerpt: as §1

Assay [2] concerns T21, Burkholderia cepacia complex Bcc Indeterminate AU12848.
T21 construct: AU12848
Nature of the assay: microbe, parasite or virus in culture. The settings on record: Burkholderia cepacia.
Excerpt: as §1

Assay [3] concerns T22, Burkholderia cepacia complex Bcc Indeterminate AU19821.
T22 construct: AU19821
Nature of the assay: microbe, parasite or virus in culture. The settings on record: Burkholderia cepacia.
Excerpt: as §1

As for `CO/N=C(\C(=O)N[C@@H]1C(=O)N2C(C(=O)[O-])=C(C[N+]3(C)CCCC3)CS[C@H]12)c1csc(N)n1` [cefepime], the MIC in the assay on B. cenocepacia AU0583 is 32 µg/mL (≈ 66.6 µM); in the assay with B. cenocepacia AU0756, over 32 µg/mL; against B. cenocepacia AU19684 it was over 32 µg/mL; in the assay on B. cepacia AU0108, 8 µg/mL (≈ 16.6 µM); against B. cepacia AU22213 it was 32 µg/mL (≈ 66.6 µM); against B. contaminans AU17641, 32 µg/mL (≈ 66.6 µM). In addition, the MIC against B. contaminans AU22662 was 16 µg/mL (≈ 33.3 µM); in the assay with B. gladioli AU0032 it was over 32 µg/mL; against B. multivorans AU10398 it was over 32 µg/mL; against B. multivorans AU11772, over 32 µg/mL; against B. multivorans AU14364, over 32 µg/mL; in the assay with B. multivorans AU18096, 2 µg/mL (≈ 4.16 µM). Also, the MIC is 32 µg/mL (≈ 66.6 µM) against B. multivorans AU19518; 8 µg/mL (≈ 16.6 µM) against B. multivorans AU22436; 32 µg/mL (≈ 66.6 µM) against B. multivorans AU23919; over 32 µg/mL against B. multivorans AU29198; 2 µg/mL (≈ 4.16 µM) in the assay on B. multivorans AU30441; 32 µg/mL (≈ 66.6 µM) in the assay on B. pyrrocinia AU4348. Further, the MIC with B. vietnamiensis AU30387 is 2 µg/mL (≈ 4.16 µM); in assay [1], 32 µg/mL (≈ 66.6 µM); in [2] it was over 32 µg/mL; in [3], over 32 µg/mL.
For the compound `C[C@H]1COc2c(N3CCN(C)CC3)c(F)cc3c(=O)c(C(=O)O)cn1c23` [levofloxacin], the MIC is over 32 µg/mL with B. cenocepacia AU0583; over 32 µg/mL in the assay on B. cenocepacia AU0756; over 32 µg/mL against B. cenocepacia AU19684; 2 µg/mL (≈ 5.53 µM) against B. cepacia AU0108; 2 µg/mL (≈ 5.53 µM) against B. cepacia AU22213; 4 µg/mL (≈ 11.1 µM) in the assay on B. contaminans AU17641. Further, the MIC in the assay on B. contaminans AU22662 is 4 µg/mL (≈ 11.1 µM); against B. gladioli AU0032, 8 µg/mL (≈ 22.1 µM); in the assay with B. multivorans AU10398, 16 µg/mL (≈ 44.3 µM); with B. multivorans AU11772, 8 µg/mL (≈ 22.1 µM); in the assay on B. multivorans AU14364 it was 32 µg/mL (≈ 88.6 µM); in the assay on B. multivorans AU18096, 4 µg/mL (≈ 11.1 µM). The MIC is 32 µg/mL (≈ 88.6 µM) against B. multivorans AU19518; over 32 µg/mL in the assay with B. multivorans AU22436; 2 µg/mL (≈ 5.53 µM) in the assay on B. multivorans AU23919; 8 µg/mL (≈ 22.1 µM) with B. multivorans AU29198; 2 µg/mL (≈ 5.53 µM) against B. multivorans AU30441; over 32 µg/mL against B. pyrrocinia AU4348. For the same compound, the MIC amounted to 2 µg/mL (≈ 5.53 µM) with B. vietnamiensis AU30387, 8 µg/mL (≈ 22.1 µM) in [1], 8 µg/mL (≈ 22.1 µM) in [2] and 32 µg/mL (≈ 88.6 µM) in assay [3].
With `C[C@@H](O)[C@H]1C(=O)N2C(C(=O)O)=C(S[C@@H]3CN[C@H](C(=O)N(C)C)C3)[C@H](C)[C@H]12` [meropenem], the MIC came out at 4 µg/mL (≈ 10.4 µM) against B. cenocepacia AU0583; 32 µg/mL (≈ 83.4 µM) against B. cenocepacia AU0756; 8 µg/mL (≈ 20.9 µM) against B. cenocepacia AU19684; 4 µg/mL (≈ 10.4 µM) in the assay with B. cepacia AU0108; 4 µg/mL (≈ 10.4 µM) against B. cepacia AU22213; 4 µg/mL (≈ 10.4 µM) in the assay on B. contaminans AU17641. Besides, the MIC in the assay with B. contaminans AU22662 stood at 4 µg/mL (≈ 10.4 µM); against B. gladioli AU0032, 2 µg/mL (≈ 5.22 µM); in the assay with B. multivorans AU10398 it was 8 µg/mL (≈ 20.9 µM); against B. multivorans AU11772, 16 µg/mL (≈ 41.7 µM); in the assay with B. multivorans AU14364, 4 µg/mL (≈ 10.4 µM); with B. multivorans AU18096 it was 1 µg/mL (≈ 2.61 µM). In addition, the MIC stood at 16 µg/mL (≈ 41.7 µM) in the assay on B. multivorans AU19518; 8 µg/mL (≈ 20.9 µM) with B. multivorans AU22436; 4 µg/mL (≈ 10.4 µM) with B. multivorans AU23919; 16 µg/mL (≈ 41.7 µM) in the assay with B. multivorans AU29198; 8 µg/mL (≈ 20.9 µM) against B. multivorans AU30441; 4 µg/mL (≈ 10.4 µM) in the assay on B. pyrrocinia AU4348. Further, the MIC in the assay with B. vietnamiensis AU30387 was 0.25 µg/mL (≈ 0.652 µM); in assay [1], 4 µg/mL (≈ 10.4 µM); in assay [2], 8 µg/mL (≈ 20.9 µM); in assay [3], 16 µg/mL (≈ 41.7 µM).
